Measured values reported in patent publication US20230085307A1, “PYRIDAZINONE COMPOUND AND HERBICIDE” (NISSAN CHEMICAL CORPORATION, priority 2019, published 2023).

Experiments:
late watergrass = test: Test Example 1: herbicidal activity, application before weed generation under submerged conditions (Table 16, symbol A); format: in vivo, late watergrass (Echinochloa oryzicola); conditions: amount of applied herbicide 320 g/ha
Method in brief: (§1)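 Emulsion formulation, water-diluted to set dose, was put onto the flooded surface (4 cm depth, alluvial soil) the same day weeds were sown and 2.5-leaf rice transplanted. After 3 weeks at 25-30 °C under glass, each species was rated 0 (≤5% kill) to 5 (≥90% kill).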

Japanese bulrush = test: Test Example 1: herbicidal activity, application before weed generation under submerged conditions (Table 16, symbol B); format: in vivo, Japanese bulrush (Schoenoplectus juncoides); conditions: amount of applied herbicide 320 g/ha
Method in brief: as §1

oval-leafed pondweed = test: Test Example 1: herbicidal activity, application before weed generation under submerged conditions (Table 16, symbol C); format: in vivo, oval-leafed pondweed (Monochoria vaginalis); conditions: amount of applied herbicide 320 g/ha
Method in brief: as §1

barnyard grass [1] = test: Test Example 3: herbicidal effect by foliage application, Wagner pot (Table 18, symbol H); format: in vivo, barnyard grass (Echinochloa crus-galli); conditions: 320 g/ha
Method in brief: (§2)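 Plants were sown in alluvial soil held under 0.1–0.5 cm standing water and grown 14 days in a greenhouse at 25–30 °C. An emulsifiable formulation, water-diluted to the set dose, was then sprayed onto the foliage, and effects were scored three weeks later using previously defined criteria.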

Chinese sprangletop = test: Test Example 3: herbicidal effect by foliage application, Wagner pot (Table 18, symbol D); format: in vivo, chinese sprangletop (Leptochloa chinensis); conditions: 320 g/ha
Method in brief: as §2

rice flat sedge = test: Test Example 3: herbicidal effect by foliage application, Wagner pot (Table 18, symbol E); format: in vivo, rice flat sedge (Cyperus iria); conditions: 320 g/ha
Method in brief: as §2

southern crabgrass [2] = test: Test Example 4: herbicidal effect by soil treatment (Table 19, symbol F); format: in vivo, southern crabgrass (Digitaria ciliaris); conditions: amount of applied herbicide 320 g/ha
Method in brief: (§3)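 Herbicidal effect was rated 3 weeks after treatment, using the scoring criteria of an earlier test. The compound, formulated as an emulsion and diluted in water to a set herbicide amount, had been sprayed uniformly on soil over freshly sown seeds. Growth took place in a greenhouse at 25° C. to 30° C.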

green foxtail [3] = test: Test Example 4: herbicidal effect by soil treatment (Table 19, symbol G); format: in vivo, green foxtail (Setaria viridis); conditions: amount of applied herbicide 320 g/ha
Method in brief: as §3

barnyard grass [4] = test: Test Example 4: herbicidal effect by soil treatment (Table 19, symbol H); format: in vivo, barnyard grass (Echinochloa crus-galli); conditions: amount of applied herbicide 320 g/ha
Method in brief: as §3

wild oat [5] = test: Test Example 4: herbicidal effect by soil treatment (Table 19, symbol I); format: in vivo, wild oat (Avena fatua); conditions: amount of applied herbicide 320 g/ha
Method in brief: as §3

blackgrass [6] = test: Test Example 4: herbicidal effect by soil treatment (Table 19, symbol J); format: in vivo, blackgrass (Alopecurus myosuroides); conditions: amount of applied herbicide 320 g/ha
Method in brief: as §3

Italian ryegrass [7] = test: Test Example 4: herbicidal effect by soil treatment (Table 19, symbol K); format: in vivo, Italian ryegrass (Lolium multiflorum); conditions: amount of applied herbicide 320 g/ha
Method in brief: as §3

windgrass [8] = test: Test Example 4: herbicidal effect by soil treatment (Table 19, symbol L); format: in vivo, windgrass (Apera spica-venti); conditions: amount of applied herbicide 320 g/ha
Method in brief: as §3

velvetleaf [9] = test: Test Example 4: herbicidal effect by soil treatment (Table 19, symbol M); format: in vivo, velvetleaf (Abutilon theophrasti); conditions: amount of applied herbicide 320 g/ha
Method in brief: as §3

redroot pigweed [10] = test: Test Example 4: herbicidal effect by soil treatment (Table 19, symbol N); format: in vivo, redroot pigweed (Amaranthus retroflexus); conditions: amount of applied herbicide 320 g/ha
Method in brief: as §3

lambsquarters [11] = test: Test Example 4: herbicidal effect by soil treatment (Table 19, symbol O); format: in vivo, lambsquarters (Chenopodium album); conditions: amount of applied herbicide 320 g/ha
Method in brief: as §3

chickweed [12] = test: Test Example 4: herbicidal effect by soil treatment (Table 19, symbol P); format: in vivo, common chickweed (Stellaria media); conditions: amount of applied herbicide 320 g/ha
Method in brief: as §3

false cleavers [13] = test: Test Example 4: herbicidal effect by soil treatment (Table 19, symbol Q); format: in vivo, false cleavers (Galium spurium); conditions: amount of applied herbicide 320 g/ha
Method in brief: as §3

persian speedwell [14] = test: Test Example 4: herbicidal effect by soil treatment (Table 19, symbol R); format: in vivo, Persian speedwell (Veronica persica); conditions: amount of applied herbicide 320 g/ha
Method in brief: as §3

southern crabgrass [15] = test: Test Example 5: herbicidal effect by foliage application, plastic box (Table 20, symbol F); format: in vivo, southern crabgrass (Digitaria ciliaris); conditions: foliage application, 320 g/ha, three weeks after application
Method in brief: (§4)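 Foliar spray test: emulsion formulation diluted in water to a set application rate, sprayed onto 14-day-old plants raised in diluvial soil at 25° C to 30° C under glass. Both herbicidal effect and crop effect rated visually three weeks later.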

green foxtail [16] = test: Test Example 5: herbicidal effect by foliage application, plastic box (Table 20, symbol G); format: in vivo, green foxtail (Setaria viridis); conditions: foliage application, 320 g/ha, three weeks after application
Method in brief: as §4

barnyard grass [17] = test: Test Example 5: herbicidal effect by foliage application, plastic box (Table 20, symbol H); format: in vivo, barnyard grass (Echinochloa crus-galli); conditions: foliage application, 320 g/ha, three weeks after application
Method in brief: as §4

wild oat [18] = test: Test Example 5: herbicidal effect by foliage application, plastic box (Table 20, symbol I); format: in vivo, wild oat (Avena fatua); conditions: foliage application, 320 g/ha, three weeks after application
Method in brief: as §4

blackgrass [19] = test: Test Example 5: herbicidal effect by foliage application, plastic box (Table 20, symbol J); format: in vivo, blackgrass (Alopecurus myosuroides); conditions: foliage application, 320 g/ha, three weeks after application
Method in brief: as §4

Italian ryegrass [20] = test: Test Example 5: herbicidal effect by foliage application, plastic box (Table 20, symbol K); format: in vivo, Italian ryegrass (Lolium multiflorum); conditions: foliage application, 320 g/ha, three weeks after application
Method in brief: as §4

windgrass [21] = test: Test Example 5: herbicidal effect by foliage application, plastic box (Table 20, symbol L); format: in vivo, windgrass (Apera spica-venti); conditions: foliage application, 320 g/ha, three weeks after application
Method in brief: as §4

velvetleaf [22] = test: Test Example 5: herbicidal effect by foliage application, plastic box (Table 20, symbol M); format: in vivo, velvetleaf (Abutilon theophrasti); conditions: foliage application, 320 g/ha, three weeks after application
Method in brief: as §4

redroot pigweed [23] = test: Test Example 5: herbicidal effect by foliage application, plastic box (Table 20, symbol N); format: in vivo, redroot pigweed (Amaranthus retroflexus); conditions: foliage application, 320 g/ha, three weeks after application
Method in brief: as §4

lambsquarters [24] = test: Test Example 5: herbicidal effect by foliage application, plastic box (Table 20, symbol O); format: in vivo, lambsquarters (Chenopodium album); conditions: foliage application, 320 g/ha, three weeks after application
Method in brief: as §4

chickweed [25] = test: Test Example 5: herbicidal effect by foliage application, plastic box (Table 20, symbol P); format: in vivo, common chickweed (Stellaria media); conditions: foliage application, 320 g/ha, three weeks after application
Method in brief: as §4

false cleavers [26] = test: Test Example 5: herbicidal effect by foliage application, plastic box (Table 20, symbol Q); format: in vivo, false cleavers (Galium spurium); conditions: foliage application, 320 g/ha, three weeks after application
Method in brief: as §4

persian speedwell [27] = test: Test Example 5: herbicidal effect by foliage application, plastic box (Table 20, symbol R); format: in vivo, Persian speedwell (Veronica persica); conditions: foliage application, 320 g/ha, three weeks after application
Method in brief: as §4

SMILES: CCCC(=O)Oc1c(C)nn(C)c(=O)c1-c1c(-c2ccc(F)cc2OC)sc2cc(Cl)ccc12 [3-044]
- Herbicidal effect, A: late watergrass (late watergrass): 3 (Herbicidal rate of 40% or more and less than 70%)
- Herbicidal effect, B: Japanese bulrush (Japanese bulrush): 0 (Herbicidal rate of 5% or less (almost no effect))
- Herbicidal effect, C: oval-leafed pondweed (oval-leafed pondweed): 0 (Herbicidal rate of 5% or less (almost no effect))
- herbicidal effect on barnyard grass (H) (barnyard grass [1]): 5 (Herbicidal rate of 90% or more (almost completely withered))
- herbicidal effect on Chinese sprangletop (D) (Chinese sprangletop): 0 (Herbicidal rate of 5% or less (almost no effect))
- herbicidal effect on rice flat sedge (E) (rice flat sedge): 3 (Herbicidal rate of 40% or more and less than 70%)
- F: southern crabgrass, herbicidal effect grade (southern crabgrass [2]): 1 (Herbicidal rate of 5% or more and less than 20%)
- G: green foxtail, herbicidal effect grade (green foxtail [3]): 1 (Herbicidal rate of 5% or more and less than 20%)
- H: barnyard grass, herbicidal effect grade (barnyard grass [4]): 3 (Herbicidal rate of 40% or more and less than 70%)
- I: wild oat, herbicidal effect grade (wild oat [5]): 0 (Herbicidal rate of 5% or less (almost no effect))
- J: blackgrass, herbicidal effect grade (blackgrass [6]): 0 (Herbicidal rate of 5% or less (almost no effect))
- K: Italian ryegrass, herbicidal effect grade (Italian ryegrass [7]): 0 (Herbicidal rate of 5% or less (almost no effect))
- L: windgrass, herbicidal effect grade (windgrass [8]): 3 (Herbicidal rate of 40% or more and less than 70%)
- M: velvetleaf, herbicidal effect grade (velvetleaf [9]): 2 (Herbicidal rate of 20% or more and less than 40%)
- N: redroot pigweed, herbicidal effect grade (redroot pigweed [10]): 4 (Herbicidal rate of 70% or more and less than 90%)
- O: lambsquarters, herbicidal effect grade (lambsquarters [11]): 4 (Herbicidal rate of 70% or more and less than 90%)
- P: chickweed, herbicidal effect grade (chickweed [12]): 4 (Herbicidal rate of 70% or more and less than 90%)
- Q: false cleavers, herbicidal effect grade (false cleavers [13]): 4 (Herbicidal rate of 70% or more and less than 90%)
- R: persian speedwell, herbicidal effect grade (persian speedwell [14]): 3 (Herbicidal rate of 40% or more and less than 70%)
- F: southern crabgrass, herbicidal effect grade (southern crabgrass [15]): 3 (Herbicidal rate of 40% or more and less than 70%)
- G: green foxtail, herbicidal effect grade (green foxtail [16]): 4 (Herbicidal rate of 70% or more and less than 90%)
- H: barnyard grass, herbicidal effect grade (barnyard grass [17]): 5 (Herbicidal rate of 90% or more (almost completely withered))
- I: wild oat, herbicidal effect grade (wild oat [18]): 4 (Herbicidal rate of 70% or more and less than 90%)
- J: blackgrass, herbicidal effect grade (blackgrass [19]): 5 (Herbicidal rate of 90% or more (almost completely withered))
- K: Italian ryegrass, herbicidal effect grade (Italian ryegrass [20]): 0 (Herbicidal rate of 5% or less (almost no effect))
- L: windgrass, herbicidal effect grade (windgrass [21]): 5 (Herbicidal rate of 90% or more (almost completely withered))
- M: velvetleaf, herbicidal effect grade (velvetleaf [22]): 4 (Herbicidal rate of 70% or more and less than 90%)
- N: redroot pigweed, herbicidal effect grade (redroot pigweed [23]): 3 (Herbicidal rate of 40% or more and less than 70%)
- O: lambsquarters, herbicidal effect grade (lambsquarters [24]): 3 (Herbicidal rate of 40% or more and less than 70%)
- P: chickweed, herbicidal effect grade (chickweed [25]): 5 (Herbicidal rate of 90% or more (almost completely withered))
- Q: false cleavers, herbicidal effect grade (false cleavers [26]): 4 (Herbicidal rate of 70% or more and less than 90%)
- R: persian speedwell, herbicidal effect grade (persian speedwell [27]): 3 (Herbicidal rate of 40% or more and less than 70%)
